Source: patent publication US12559454B2, “Benzenesulfonamide derivatives and uses thereof” (2692372 Ontario, Inc., priority 2019, dated 2026)
“And” between values parts separate entries of the source, which are not always exact repeats. Identical values can stand only once. Like-named read-outs stand apart in the source and are kept apart here.

How the values were obtained:
[1] = Intrinsic clearance in mouse hepatocyte; type: in vitro ADME; conditions: hepatocytes
Method: A stock of 100 μM test compound was prepared by diluting the 10 mM test compound in DMSO with a solution of 50% acetonitrile and 50% water. In a 96-well non-coated plate, 198 μL of hepatocytes was pipetted, and the plate was placed in the incubator on an orbital shaker to allow the hepatocytes to warm for 10 minutes. To this solution was added 2 μL of the 100 μM test compound to start the reaction, and the plate was placed on an orbital shaker. […] The reaction solution was then vortexed for 10 minutes and centrifuged at 4,000 rpm for 30 minutes at 4° C. 400 μL of the supernatant was transferred to one new 96-well plate. Centrifuged at 4,000 rpm for 30 minutes at 4° C. Transfer 100 μL of the supernatant to a new 96-well plate ensuring the pellet was not disturbed. Add 100 μL of ultrapure water to all samples for analysis by LC-MS/MS. Bioanalytical method: Column—Phenomenex Synergi 4μ Hydro-PR 80A (2.0×30 mm). Mobile phase—0.1% formic acid in water (solvent A) and 0.1% formic acid in acetonitrile (solvent B). Column temperature—room temperature. Injection volume—10 μL. MS analysis—API 4000 instrument from AB Inc (Canada) with an ESI interface.

[2] = PAMPA, 16 h, 10 μM, pH 7.4
Method: (§2) 1) The stock solutions of positive controls were prepared in DMSO at the concentration of 10 mM. Testosterone and methotrexate were used as control compounds in this assay. 2) Prepare a stock solution of compounds in DMSO at the concentration of 10 mM, and further dilute with PBS (pH 7.4). The final concentration of the test compound is 10 μM.
(§3) Assay Procedures. […] 2)Carefully pipette 5 μL of the lecithin/dodecane mixture into each acceptor plate well (top compartment), avoiding pipette tip contact with the membrane. 3) Immediately after the application of the artificial membrane (within 10 minutes), add 300 μL of PBS (pH 7.4) solution to each well of the acceptor plate. Add 300 μL of drug-containing solutions to each well of the donor plate (bottom compartment) in triplicate. 4) Slowly and carefully place the acceptor plate into the donor plate, making sure the underside of the membrane is in contact with the drug-containing solutions in all wells. 5) Replace the plate lid and incubate at 25° C., 60 rpm for 16 hours. 6) After incubation, aliquots of 50 μL from each well of acceptor and donor plate are transferred into a 96-well plate. Add 200 μL of methanol (containing IS: 100 nM Alprazolam, 200 nM Labetalol and 2 μM Ketoprofen) into each well. 7) Cover with plate lid. Vortex at 750 rpm for 100 seconds. Samples were centrifuged at 3,220 g for 20 minutes. Determine the compound concentrations by LC/MS/MS.

[3] = Parallel artificial membrane permeability assay (PAMPA), Example D4; conditions: for recovery at 16 h, 10 μM: pH 7.4
Method: as §2, §3

tubulin = assay: Tubulin polymerization assay; type: biochemical; conditions: for % Inhibition: Vmax normalized to tubulin only control; for % D.O.P.: degree of polymerization relative to tubulin control
In short: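 Purified tubulin (3 mg/mL in the polymerization mix) in 80 mM PIPES pH 6.9, 2 mM MgCl2, 0.5 mM EGTA, 1 mM GTP, 10.2% glycerol was added to inhibitor at 37 °C. A340 read every 15 s for 30 min; maximal baseline-subtracted change relative to tubulin-only control gave % degree of polymerization.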

BMX = target: T1, BMX (Homo sapiens, UniProt P51813); assay: In vitro kinase inhibition, BMX; type: biochemical
T1 sequence (P51813 1-675): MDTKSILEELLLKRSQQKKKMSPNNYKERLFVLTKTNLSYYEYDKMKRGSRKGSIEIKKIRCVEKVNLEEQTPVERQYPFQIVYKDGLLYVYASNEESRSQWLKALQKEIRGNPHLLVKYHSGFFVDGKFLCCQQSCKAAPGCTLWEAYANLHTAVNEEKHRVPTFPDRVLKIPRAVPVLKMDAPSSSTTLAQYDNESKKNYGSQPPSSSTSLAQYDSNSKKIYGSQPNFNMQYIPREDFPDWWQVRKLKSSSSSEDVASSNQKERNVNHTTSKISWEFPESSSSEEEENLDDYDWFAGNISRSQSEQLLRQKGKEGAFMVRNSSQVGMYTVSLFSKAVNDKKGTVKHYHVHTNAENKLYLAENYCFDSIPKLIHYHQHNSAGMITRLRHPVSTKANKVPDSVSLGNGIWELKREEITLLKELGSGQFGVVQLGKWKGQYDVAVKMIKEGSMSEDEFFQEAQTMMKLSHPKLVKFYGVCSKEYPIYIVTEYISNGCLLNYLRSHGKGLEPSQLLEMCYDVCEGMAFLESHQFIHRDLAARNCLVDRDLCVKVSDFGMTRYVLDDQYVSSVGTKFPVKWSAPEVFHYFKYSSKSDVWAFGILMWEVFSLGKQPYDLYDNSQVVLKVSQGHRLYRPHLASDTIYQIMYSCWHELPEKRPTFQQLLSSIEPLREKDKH

BTK [4] = target: T2, BTK (Homo sapiens, UniProt Q06187); assay: In vitro BTK inhibition (no preincubation); type: biochemical; conditions: Table 17
T2 sequence (Q06187 whole entry, species assumed, the tested form may be a part): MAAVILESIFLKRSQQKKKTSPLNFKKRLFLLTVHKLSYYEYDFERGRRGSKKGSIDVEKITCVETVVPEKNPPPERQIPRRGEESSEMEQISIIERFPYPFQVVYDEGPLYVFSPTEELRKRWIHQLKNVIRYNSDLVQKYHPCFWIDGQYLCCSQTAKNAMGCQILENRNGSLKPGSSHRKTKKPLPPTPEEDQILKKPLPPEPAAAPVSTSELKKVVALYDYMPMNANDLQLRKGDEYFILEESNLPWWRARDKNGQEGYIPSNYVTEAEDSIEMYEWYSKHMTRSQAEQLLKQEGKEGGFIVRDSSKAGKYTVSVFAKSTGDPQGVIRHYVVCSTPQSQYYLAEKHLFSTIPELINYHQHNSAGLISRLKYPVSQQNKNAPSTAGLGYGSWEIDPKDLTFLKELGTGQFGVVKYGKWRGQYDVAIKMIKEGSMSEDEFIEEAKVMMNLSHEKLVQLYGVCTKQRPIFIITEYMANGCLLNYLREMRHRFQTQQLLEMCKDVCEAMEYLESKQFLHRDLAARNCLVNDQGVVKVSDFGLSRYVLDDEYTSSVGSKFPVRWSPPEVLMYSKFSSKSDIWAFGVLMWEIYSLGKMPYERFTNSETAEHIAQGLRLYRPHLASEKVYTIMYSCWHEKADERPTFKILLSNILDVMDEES

[5] = target: T3, His-tagged BTK kinase domain (Homo sapiens, UniProt Q06187); assay: Mass spectral analysis of tryptic digest of BTK kinase domain; type: binding; conditions: 10 μM BTK KD, 10 μM compound, 45 min; tryptic peptide 467-487
T3 construct: Intact His-tagged BTK kinase domain (SOURCE)(10 μM) was incubated
T3 sequence (Q06187 402-655 limits assumed): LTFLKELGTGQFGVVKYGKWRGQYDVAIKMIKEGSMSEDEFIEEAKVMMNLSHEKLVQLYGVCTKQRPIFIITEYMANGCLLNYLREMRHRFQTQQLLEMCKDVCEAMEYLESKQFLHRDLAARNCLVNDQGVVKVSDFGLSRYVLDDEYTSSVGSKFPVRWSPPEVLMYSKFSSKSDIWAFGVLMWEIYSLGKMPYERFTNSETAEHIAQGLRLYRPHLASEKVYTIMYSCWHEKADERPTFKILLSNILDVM
Method: A protein kinase that is inhibited by compound and/or pharmaceutically acceptable salt of the present disclosure may be subjected to mass spectral analysis to assess the formation of permanent, irreversible covalent adducts. […] Such methods identify permanent, irreversible covalent protein adducts by observing a mass peak that corresponds to the mass of a control sample plus the mass of an irreversible adduct.
After the incubation time, the reactions were quenched by acetone precipitation and the pellet was re-dissolved in 8 M Urea. […] The BTK protein band was then excised and subjected to an in-gel trypsin digest by reducing the protein (5 mM DTT), alkylating the thiols with iodoacetamide (15 mM), and then incubating the protein gel band with trypsin in a 37 C water bath (4 hours). The tryptic digestion was then quenched by the addition of trifluoroacetic acid, and peptides were removed from the gel band by sonicating with increasing amounts of acetonitrile (0%, 30%, & 60%). Peptides were then purified using C18 ziptips, spotted on the MALDI target plate with α-cyano-4-hydroxycinnamic acid as the desorption matrix (10 mg/mL in 0.10% TFA:Acetonitrile 50:50), and analyzed in reflectron mode.

[6] = target: T4, NanoLuc-BTK fusion protein (Homo sapiens, UniProt Q06187); assay: NanoBRET target engagement assay in HEK 293 cells; type: cell-based; conditions: tracer K-5, 2 hours
T4 construct: host or cells: HEK 293 cells
T4 sequence (Q06187 whole entry, the tested form may be a part): as the sequence (Q06187 whole entry, species assumed, the tested form may be a part) above
Excerpt: Bioluminescence Resonance Energy Transfer (BRET) is used to quantitatively measure the interaction between proteins in live cells. The NanoBRET Target Engagement (TE) Assay ((Promega, Cat #N2500)) measures the apparent binding affinity of test compounds at select kinase proteins by competitive displacement of a fluorescent NanoBRET kinase-ligand tracer (K-5), from a target kinase fused to a NanoLuc luciferase protein within intact cells. To determine whether test compounds can bind BTK, a fixed concentration of NanoBRET tracer is added to cells expressing the NanoLuc-BTK fusion protein, thereby generating a BRET reporter complex. Application of competitive test compounds results in a dose-dependent decrease in NanoBRET™ energy transfer, which allows quantitation of apparent intracellular affinity of the BTK target protein for the test compound.
In order to evaluate the binding between BTK and test compounds, an intracellular drug displacement assay was performed. […] The plates were then analyzed with a Biotek Synergy Neo2 plate reader equipped with NanoBRET 618 filters (donor 450 nm/8 nm BP and acceptor 600 nm LP). […] BRET ratios are expressed as milliBRET units (mBU), where 1 mBU corresponds to the corrected BRET ratio multiplied by 1000.

BTK [7] = target: T2, BTK; assay: BTK washout experiment; type: biochemical; conditions: 6-h incubation, 50 nM BTK, 280 nM compound, 400-fold dilution
Method: After a 3-h incubation of 40 nM BTK in the presence of 296 nM of compound I-A1, a 400-fold dilution was performed to remove excess inhibitor.
After a 6-h incubation of 50 nM BTK in the presence of 280 nM of compound 3A-6, a 400-fold dilution was performed to remove excess inhibitor.
By way of contrast, a “washout” experiment performed with ARQ-531 gives a very different result, because this compound lacks a warhead and is known to inhibit BTK reversibly. After a 6-h incubation of 50 nM BTK in the presence of 177 nM of ARQ-531, a 400-fold dilution was performed to remove excess inhibitor. […] This indicates to one of ordinary skill in the art that the enzyme was not inhibited irreversibly during the incubation with ARQ-531.

BTK [8] = target: T2, BTK; assay: BTK irreversible inhibition, enzyme kinetic analysis; type: biochemical; conditions: 500 μM ATP
Method: One of ordinary skill in the art will recognize that this is consistent with the irreversible inhibition of BTK by compound I-A1.
One of ordinary skill in the art will recognize that this is consistent with the irreversible inhibition of BTK by compound I-A6.
One of ordinary skill in the art will recognize that this is consistent with the irreversible inhibition of BTK by compound 3A-2.
The shift of IC50 to a lower value after pre-incubation of the enzyme indicates to one of ordinary skill in the art that a significant portion of the enzyme was inhibited irreversibly during the incubation period.

K562 cells = assay: CellTiter-Blue cell viability, K562; type: cell-based; conditions: Homo sapiens, 72 hrs exposure
In short: (§1)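 Cells plated at 1×10^4 per well, compound (0.097656-50 μM) added after 24 hrs and exposed 72 hrs at 37° C, 5% CO2. Viability by CellTiter-Blue, 1-4 h incubation, fluorescence at 560/590 nm.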

[9] = Reactivity profiling with glutathione, HPLC method; type: physicochemical; conditions: IMDM buffer with 10% FBS and 5 mM GSH, 25 μM compound
Method: The rate of compound degradation is determined by the integrated area of the analytical peak corresponding to the intact compound (t=0) after each sampling time. The elution time was 13 minutes with the flow rate of 1.2 ml/min. The mobile phase was consisted of phase A and B. Mobile phase A was analytical grade acetonitrile (+0.1% formic acid) and mobile phase B was Milli-Q water (+0.1% formic acid). Each compound was tested in duplicate. The data was processed and analyzed using GraphPad.

MOLM-13 cells = assay: CellTiter-Blue cell viability, MOLM-13; type: cell-based; conditions: Homo sapiens, 72 hrs exposure
In short: as §1

MV4-11 cells = assay: CellTiter-Blue cell viability, MV-4-11; type: cell-based; conditions: Homo sapiens, 72 hrs exposure
In short: as §1

[10] = Plasma concentration in Balb/C nude mice
Method: IP administration at 40 mg/kg
Bioanalytical assay: Mobile phase: Solvent A=Water (0.1% Formic acid, 5% Acetonitrile), Solvent B=Acetonitrile (0.1% Formic acid, 5% Water), Column: Agilent ZORBAX XDB-Phenyl 5 μm (50×2.10 mm), MS: AB API 5500 LC/MS/MS instrument, HPLC: Shimadzu (DGU-20A5R)
Mouse species: Balb/C nude mice

COc1ccc(NS(=O)(=O)c2c(F)c(F)c(F)c(F)c2F)cc1F [Batabulin, batabulin, reference compound]
half-life at 1 μM [1]: ≤ 0.167 h | −Log Pe [2]: 5.00 | recovery at 16 h, 10 μM [3]: 67.4% | % Inhibition (tubulin): C (>20%) | % D.O.P. (tubulin): B (< 85%)

COc1c(F)c(F)c(F)c(F)c1S(=O)(=O)N1CCC[C@@H](n2nc(-c3ccc(Oc4ccccc4)cc3)c3c(N)ncnc32)C1 [Compound 3A-1, (R)-3-(4-phenoxyphenyl)-1-(1-((2,3,4,5-tetrafluoro-6-methoxyphenyl)sulfonyl)piperidin-3-yl)-1H-pyrazolo[3,4-d]pyrimidin-4-amine]
IC50 (BMX): 10 to 100 nM | IC50 (BTK [4]): 100 to 1000 nM

COc1c(F)c(F)c(F)c(F)c1S(=O)(=O)NCCn1nc(-c2ccc(Oc3ccccc3)cc2)c2c(N)ncnc21 [Compound 3A-6, N-(2-(4-amino-3-(4-phenoxyphenyl)-1H-pyrazolo[3,4-d]pyrimidin-1-yl)ethyl)-2,3,4,5-tetrafluoro-6-methoxybenzenesulfonamide]
C481 covalent modification [5]: covalent modification and ✓ | IC50 (BTK [4]): 100 to 1000 nM | IC50 [6]: 94 nM | inhibition at 0.28 µM (BTK [7]; read-out: enzyme inhibited irreversibly): 87% | remaining activity at 0.28 µM (BTK [7]; relative to DMSO, read-out: residual activity of the enzyme): 13% | IC50 (BTK [8]; no pre-incubation, read-out: IC50 against BTK not pre-incubated): 109 nM | IC50 (BTK [8]; after 3-h incubation of 50 nM BTK with 280 nM compound, read-out: IC50 against pre-incubated BTK): 13.9 nM

COc1ccc(NS(=O)(=O)c2c(F)c(F)c(F)c(F)c2OC2CC2)cc1F [Compound I-75, 2-cyclopropoxy-3,4,5,6-tetrafluoro-N-(3-fluoro-4-methoxyphenyl)benzenesulfonamide]
half-life at 1 μM [1]: 1.67 to 16.7 h | IC50 (K562 cells): 100 to 1000 nM | half-life at 25 μM [9]: 1.67 to 16.7 h | IC50 (MOLM-13 cells): 100 to 1000 nM | −Log Pe ([3]; PBS pH 7.4, 10 μM, 16 hours): 5.02 | recovery at 16 h, 10 μM [3]: 94.9% | IC50 (MV4-11 cells): ≤ 100 nM | Cmax ([10]; Balb/C nude, mouse, ip, 40 mg/kg): < 20 ng/mL and < 50 µM | K (h^−1) ([10]; IP 40 mg/kg, Balb/C nude mice): A (≤5 h^−1) | % Inhibition (tubulin): B (10-20%) | % D.O.P. (tubulin): B (< 85%)
